For the test, the target named is T1, human mAChR M4 (Homo sapiens, UniProt P08173).
T1 construct: expressed in transfected cells; host or cells: CHO-K1 (American Type Culture Collection), stably expressing hM4 and Gqi5
T1 sequence (P08173 1-479): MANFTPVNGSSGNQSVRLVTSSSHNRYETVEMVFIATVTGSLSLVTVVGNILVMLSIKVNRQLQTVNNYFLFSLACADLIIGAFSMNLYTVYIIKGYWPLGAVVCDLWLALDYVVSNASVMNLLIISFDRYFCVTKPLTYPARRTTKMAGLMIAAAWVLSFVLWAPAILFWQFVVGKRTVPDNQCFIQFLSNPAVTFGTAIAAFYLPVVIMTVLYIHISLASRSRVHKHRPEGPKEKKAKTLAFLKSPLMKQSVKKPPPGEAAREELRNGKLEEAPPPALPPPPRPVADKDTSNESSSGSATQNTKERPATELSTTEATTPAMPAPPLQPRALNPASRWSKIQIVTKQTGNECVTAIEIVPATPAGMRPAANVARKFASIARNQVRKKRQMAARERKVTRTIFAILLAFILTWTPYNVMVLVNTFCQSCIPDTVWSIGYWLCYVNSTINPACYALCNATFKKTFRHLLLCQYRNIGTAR
Put plainly: mAChR M4 cell-based functional assay: calcium mobilization (Fluo-4, FDSS), potentiation of EC20 acetylcholine response in hM4-Gqi5 CHO-K1 cells. The following applies: human M4; for Emax at 30 µM: CHO-K1, % ACh maximum at 30 μM; for EC50: potentiation of EC20 acetylcholine response, calcium mobilization. The gist of the method: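 CHO-K1 cells stably co-expressing human M4 and chimeric Gqi5, loaded with Fluo-4 AM (50 min, 37 °C). Compounds in 11-point 1:3 series added first; EC20 acetylcholine added at 144 s and again at 230 s. Calcium read on FDSS at 1 Hz; EC50 and Emax from four-parameter logistic fit of potentiated EC20 response.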

Emax and EC50 data for 24 compounds are collected here from US20250101041A1, “POSITIVE ALLOSTERIC MODULATORS OF THE MUSCARINIC ACETYLCHOLINE RECEPTOR M4” (Vanderbilt University, priority 2022, published 2025).

Turning to `Cc1cc2nccc(=O)n2nc1N1CCc2ncc(Nc3cnccc3Cl)cc2C1` [Compound 2-135, 7-(3-((4-chloropyridin-3-yl)amino)-7,8-dihydro-1,6-naphthyridin-6(5H)-yl)-8-methyl-4H-pyrimido[1,2-b]pyridazin-4-one], the Emax at 30 µM stood at 96% and the EC50 came out at 112 nM. In the case of `Cc1cc(=O)n2nc(N3CCc4ncc(-c5cnn(CC(F)(F)F)c5)cc4C3)c(C)c(C)c2n1` [Compound 1-184, 2,8,9-trimethyl-7-(3-(1-(2,2,2-trifluoroethyl)-1H-pyrazol-4-yl)-7,8-dihydro-1,6-naphthyridin-6(5H)-yl)-4H-pyrimido[1,2-b]pyridazin-4-one], the Emax at 30 µM worked out at 80% and the EC50 was 1260 nM. On the same counts, the results for `Cc1ccc(F)cc1-c1cnc2c(c1)CN(c1nn3c(=O)ccnc3c(C)c1C)CC2` [Compound 1-194, 7-(3-(5-fluoro-2-methylphenyl)-7,8-dihydro-1,6-naphthyridin-6(5H)-yl)-8,9-dimethyl-4H-pyrimido[1,2-b]pyridazin-4-one] are 83% and 93 nM. On the same counts, the results for `Cc1cc2nccc(=O)n2nc1N1CCc2ncc(-c3cccc4c3CCC4)cc2C1` [Compound 1-436, 7-(3-(2,3-dihydro-1H-inden-4-yl)-7,8-dihydro-1,6-naphthyridin-6(5H)-yl)-8-methyl-4H-pyrimido[1,2-b]pyridazin-4-one] are 78% and 484 nM. On the same counts, the results for `Cc1cc2nc(C)c(F)c(=O)n2nc1N1CCc2ncc(C(F)(F)F)cc2C1` [Compound 1-15, 3-fluoro-2,8-dimethyl-7-(3-(trifluoromethyl)-7,8-dihydro-1,6-naphthyridin-6(5H)-yl)-4H-pyrimido[1,2-b]pyridazin-4-one] are 73% and 136 nM. Turning to `Cc1ccc(-c2cnc3c(c2)CN(c2nn4c(=O)cc(C)nc4cc2C)CC3)cn1` [Compound 1-30, 2,8-dimethyl-7-(3-(6-methylpyridin-3-yl)-7,8-dihydro-1,6-naphthyridin-6(5H)-yl)-4H-pyrimido[1,2-b]pyridazin-4-one], the Emax at 30 µM stood at 69% and the EC50 was found to be 127 nM. As for `Cc1ccccc1-c1cnc2c(c1)CN(c1nn3c(=O)ccnc3c(C)c1C)CC2` [Compound 1-222, 8,9-dimethyl-7-(3-(o-tolyl)-7,8-dihydro-1,6-naphthyridin-6(5H)-yl)-4H-pyrimido[1,2-b] pyridazin-4-one], the Emax at 30 µM came to 83% and the EC50 came out at 74 nM. As for `Cc1cc2nc(C(F)(F)F)cc(=O)n2nc1N1CCc2ncc(N3CCCn4nccc43)cc2C1` [Compound 2-11, 7-(3-(6,7-dihydropyrazolo[1,5-a]pyrimidin-4(5H)-yl)-7,8-dihydro-1,6-naphthyridin-6(5H)-yl)-8-methyl-2-(trifluoromethyl)-4H-pyrimido[1,2-b]pyridazin-4-one], the Emax at 30 µM amounted to 115% and the EC50 is 19 nM. For `Cc1cc2nccc(=O)n2nc1N1CCc2ncc(Nc3ccncc3Cl)cc2C1` [Compound 2-113, 7-(3-((3-chloropyridin-4-yl)amino)-7,8-dihydro-1,6-naphthyridin-6(5H)-yl)-8-methyl-4H-pyrimido[1,2-b]pyridazin-4-one], in that order: 97% and 48 nM. On to `Cc1c(N2CCc3ncc(N4CCC(F)(F)CC4)cc3C2)nn2c(=O)cc(C(F)F)nc2c1C` [Compound 2-48, 2-(difluoromethyl)-7-(3-(4,4-difluoropiperidin-1-yl)-7,8-dihydro-1,6-naphthyridin-6(5H)-yl)-8,9-dimethyl-4H-pyrimido[1,2-b]pyridazin-4-one], for which the Emax at 30 µM came out at 79% and the EC50 turned out to be 334 nM. For `Cc1cc(=O)n2nc(N3CCc4ncc(N5CCCn6nccc65)cc4C3)c(C)cc2n1` [Compound 2-10, 7-(3-(6,7-dihydropyrazolo[1,5-a]pyrimidin-4(5H)-yl)-7,8-dihydro-1,6-naphthyridin-6(5H)-yl)-2,8-dimethyl-4H-pyrimido[1,2-b]pyridazin-4-one], in that order: 94% and 70 nM. For `Cc1nn(C)c(C)c1-c1cnc2c(c1)CN(c1nn3c(=O)cc(C(F)F)nc3c(C)c1C)CC2` [Compound 1-310, 2-(difluoromethyl)-8,9-dimethyl-7-(3-(1,3,5-trimethyl-1H-pyrazol-4-yl)-7,8-dihydro-1,6-naphthyridin-6(5H)-yl)-4H-pyrimido[1,2-b]pyridazin-4-one], in that order: 86% and 136 nM.

Regarding `Cc1cc2nccc(=O)n2nc1N1CCc2ncc(NC(=O)C3CC(F)(F)C3)cc2C1` [Compound 2-120, 3,3-difluoro-N-(6-(8-methyl-4-oxo-4H-pyrimido[1,2-b]pyridazin-7-yl)-5,6,7,8-tetrahydro-1,6-naphthyridin-3-yl)cyclobutane-1-carboxamide], the Emax at 30 µM came out at 71%. Turning to `Cc1cc(=O)n2nc(N3CCc4ncc(-c5ccccc5OC(C)C)cc4C3)c(C)c(C)c2n1` [Compound 1-280, 7-(3-(2-isopropoxyphenyl)-7,8-dihydro-1,6-naphthyridin-6(5H)-yl)-2,8,9-trimethyl-4H-pyrimido[1,2-b]pyridazin-4-one], the Emax at 30 µM was 52% and the EC50 is 296 nM. On the same counts, the results for `Cc1cc(=O)n2nc(N3CCc4ncc(-c5cnn6ccccc56)cc4C3)c(C)cc2n1` [Compound 1-288, 2,8-dimethyl-7-(3-(pyrazolo[1,5-a]pyridin-3-yl)-7,8-dihydro-1,6-naphthyridin-6(5H)-yl)-4H-pyrimido[1,2-b] pyridazin-4-one] are 84% and 311 nM.

`Cc1c(N2CCc3ncc(-c4ccc(F)nc4)cc3C2)nn2c(=O)ccnc2c1C` [Compound 1-87, 7-(3-(6-Fluoropyridin-3-yl)-7,8-dihydro-1,6-naphthyridin-6(5H)-yl)-8,9-dimethyl-4H-pyrimido[1,2-b]pyridazin-4-one]: the Emax at 30 µM was found to be 82% and the EC50 stood at 128 nM. For `Cc1c(N2CCc3ncc(-c4cc(F)ccc4F)cc3C2)nn2c(=O)ccnc2c1C` [Compound 1-345, 7-(3-(2,5-difluorophenyl)-7,8-dihydro-1,6-naphthyridin-6(5H)-yl)-8,9-dimethyl-4H-pyrimido[1,2-b]pyridazin-4-one], in that order: 70% and 200 nM.

In the case of `Cc1ccc(-c2cnc3c(c2)CN(c2nn4c(=O)c(Br)cnc4cc2C)CC3)cn1` [Compound 1-78, 3-bromo-8-methyl-7-(3-(6-methylpyridin-3-yl)-7,8-dihydro-1,6-naphthyridin-6(5H)-yl)-4H-pyrimido[1,2-b]pyridazin-4-one], the Emax at 30 µM came to 79% and the EC50 is 152 nM. `Cc1ncc(-c2cnc3c(c2)CN(c2nn4c(=O)ccnc4cc2C)CC3)o1` [Compound 1-397, 8-methyl-7-(3-(2-methyloxazol-5-yl)-7,8-dihydro-1,6-naphthyridin-6(5H)-yl)-4H-pyrimido[1,2-b]pyridazin-4-one]: the Emax at 30 µM was found to be 87% and the EC50 stood at 1080 nM. For `Cc1cc2nccc(=O)n2nc1N1CCc2ncc(Nc3cc(F)ccc3C#N)cc2C1` [Compound 2-81, 4-fluoro-2-((6-(8-methyl-4-oxo-4H-pyrimido[1,2-b]pyridazin-7-yl)-5,6,7,8-tetrahydro-1,6-naphthyridin-3-yl)amino)benzonitrile], in that order: 85% and 230 nM. For `Cc1c(N2CCc3ncc(N4CCCn5nccc54)cc3C2)nn2c(=O)cc(C(F)(F)F)nc2c1C` [Compound 2-30, 7-(3-(6,7-dihydropyrazolo[1,5-a]pyrimidin-4(5H)-yl)-7,8-dihydro-1,6-naphthyridin-6(5H)-yl)-8,9-dimethyl-2-(trifluoromethyl)-4H-pyrimido[1,2-b]pyridazin-4-one], in that order: 83% and 20 nM. For `Cc1cc(=O)n2nc(N3CCc4ncc(-c5cnn(C)c5C)cc4C3)c(C)cc2n1` [Compound 1-294, 7-(3-(1,5-dimethyl-1H-pyrazol-4-yl)-7,8-dihydro-1,6-naphthyridin-6(5H)-yl)-2,8-dimethyl-4H-pyrimido[1,2-b]pyridazin-4-one], in that order: 99% and 245 nM. With `COCc1cc(=O)n2nc(N3CCc4ncc(-c5ncc(C)cc5C)cc4C3)c(C)cc2n1` [Compound 1-381, 7-(3-(3,5-dimethylpyridin-2-yl)-7,8-dihydro-1,6-naphthyridin-6(5H)-yl)-2-(methoxymethyl)-8-methyl-4H-pyrimido[1,2-b] pyridazin-4-one], the Emax at 30 µM amounted to 83% and the EC50 is 969 nM. On the same counts, the results for `Cc1cc(=O)n2nc(N3CCc4ncc(N5CCOC(c6cccnc6)C5)cc4C3)c(C)c(C)c2n1` (centres unmarked) [Compound 2-49, 2,8,9-trimethyl-7-(3-(2-(pyridin-3-yl)morpholino)-7,8-dihydro-1,6-naphthyridin-6(5H)-yl)-4H-pyrimido[1,2-b]pyridazin-4-one] are 75% and 1200 nM.
